Experimental data: publication PMC10977428 (Journal of Parkinson's Disease, 2024)
Where two headings read alike, the source gives them in different places.

Experiments:
Single ascending dose = assay type: in vivo, human; details: for dose linearity of single dose PK: Cmax and AUC0 - inf; for AUC0 - ∞/D / Cmax/D / tlag: fed, older healthy adults N = 6, mean (SD)
[1] = 7-day multiple ascending dose; assay type: in vivo, human; details: for accumulation of exposures at steady-state: once daily 7 days; for AUC0 - ∞/D / Cmax/D: HV N = 6, mean (SD)
[2] = 7-day MAD plasma pharmacokinetics, participants with PD; assay type: in vivo; details: human, oral
[3] = assay type: in vivo, human; details: for concentration at 6 days: human, cerebrospinal fluid, oral
[4] = test system: older healthy adults or participants with PD; assay: Safety and tolerability; assay type: in vivo, human
[5] = test system: participants with mild-to-moderate PD; assay: Functional assessments of motor and non-motor features of PD; assay type: in vivo, human; details: baseline to Day 7
c-Abl activation = details: once-daily oral administration; cited from earlier work
[6] = test system: rodent and non-human primates; details: daily dosing between 13 and 39 weeks duration; cited from earlier work
[7] = test system: models of inherited or sporadic Parkinson’s-like disease; details: once daily oral administration; cited from earlier work
PD features = details: double blind clinical studies; cited from earlier work
[8] = SAD 12.5 mg single oral dose, plasma
[9] = SAD 25.0 mg single oral dose, plasma
[10] = SAD 37.5 mg single oral dose, plasma
[11] = SAD 75.0 mg single oral dose, plasma
[12] = SAD 100 mg single oral dose, plasma
[13] = SAD 125 mg single oral dose, plasma
[14] = SAD 175 mg single oral dose, plasma
[15] = SAD 250 mg single oral dose, plasma
[16] = SAD 325 mg single oral dose, plasma
[17] = DAY 1 of 7-day dosing, 12.5 mg once daily, plasma
[18] = DAY 1 of 7-day dosing, 25.0 mg once daily, plasma
[19] = DAY 1 of 7-day dosing, 200 mg once daily, plasma
[20] = DAY 7 of 7-day dosing, 25.0 mg once daily, plasma
[21] = DAY 7 of 7-day dosing, 200.0 mg once daily, plasma

Cc1ccc(NC(=O)c2ccc(CN3CCN(C)CC3)cc2)cc1Nc1nccc(-c2cncc(-c3oncc3C)c2)n1 [Risvodetinib]
dose linearity of single dose PK (Single ascending dose): approximately linear between 12.5 mg and 175 mg | dose linearity of single dose PK (Single ascending dose; listed as risvodetinib (IkT-148009)): approximately linear between 12.5 mg and 200 mg | AUC0 - ∞/D (Single ascending dose; [8]): 758 (345) h*ng/mL/mg | Cmax/D (Single ascending dose; [8]): 35.8 (26.6) ng/mL/mg | tlag (Single ascending dose; [8]): 1.09 (1.48) h | AUC0 - ∞/D (Single ascending dose; [9]): 936 (314) h*ng/mL/mg | Cmax/D (Single ascending dose; [9]): 37.8 (13.9) ng/mL/mg | tlag (Single ascending dose; [9]): 0.614 (0.367) h | AUC0 - ∞/D (Single ascending dose; [10]): 823 (776) h*ng/mL/mg | Cmax/D (Single ascending dose; [10]): 36.0 (21.2) ng/mL/mg | tlag (Single ascending dose; [10]): 0.642 (0.393) h | AUC0 - ∞/D (Single ascending dose; [11]): 802 (342) h*ng/mL/mg | Cmax/D (Single ascending dose; [11]): 36.6 (13.6) ng/mL/mg | tlag (Single ascending dose; [11]): 0.342 (0.143) h | AUC0 - ∞/D (Single ascending dose; [12]): 1150 (285) h*ng/mL/mg | Cmax/D (Single ascending dose; [12]): 53.2 (12.8) ng/mL/mg | tlag (Single ascending dose; [12]): 0.414 (0.350) h | AUC0 - ∞/D (Single ascending dose; [13]): 879 (370) h*ng/mL/mg | Cmax/D (Single ascending dose; [13]): 42.3 (10.1) ng/mL/mg | tlag (Single ascending dose; [13]): 0.306 (0.284) h | AUC0 - ∞/D (Single ascending dose; [14]): 982 (359) h*ng/mL/mg | Cmax/D (Single ascending dose; [14]): 35.0 (13.7) ng/mL/mg | tlag (Single ascending dose; [14]): 0.0944 (0.146) h | AUC0 - ∞/D (Single ascending dose; [15]): 858 (417) h*ng/mL/mg | Cmax/D (Single ascending dose; [15]): 28.9 (6.55) ng/mL/mg | tlag (Single ascending dose; [15]): 0.547 (0.507) h | AUC0 - ∞/D (Single ascending dose; [16]): 749 (385) h*ng/mL/mg | Cmax/D (Single ascending dose; [16]): 22.5 (9.71) ng/mL/mg | tlag (Single ascending dose; [16]): 0.186 (0.250) h | half-life (Single ascending dose; human, plasma, oral): 24 to 39 h | accumulation of exposures at steady-state ([1]; 100 mg or 200 mg, Day 7 comparable to Day 1): little or no accumulation | AUC0 - ∞/D [1, 17]: 706 (424) h*ng/mL/mg | Cmax/D [1, 17]: 43.0 (23.1) ng/mL/mg | AUC0 - ∞/D [1, 18]: 780 (305) h*ng/mL/mg | Cmax/D [1, 18]: 41.5 (22.3) ng/mL/mg | AUC0 - ∞/D [1, 19]: 759 (263) h*ng/mL/mg | Cmax/D [1, 19]: 32.5 (6.4) ng/mL/mg | AUC0 - ∞/D [1, 20]: 1020 (370) h*ng/mL/mg | Cmax/D [1, 20]: 70.9 (32.3) ng/mL/mg | AUC0 - ∞/D [1, 21]: 486 (116) h*ng/mL/mg | Cmax/D [1, 21]: 29.8 (5.6) ng/mL/mg | time to steady-state ([1]; doses > 50 mg once daily (higher doses)): within one day | accumulation of exposures at steady-state ([1]; doses less than or equal to 50 mg): approximately two-fold | time to steady-state ([1]; doses ≤50 mg once daily): ≤ 5 days | AUC(0-inf) ([1]; human, plasma, oral, 12.5 mg): 8830 ng·h/mL | AUC(0-inf) ([1]; human, plasma, oral, 25 mg): 19500 ng·h/mL | AUC(0-inf) ([1]; human, plasma, oral, 200 mg): 152000 ng·h/mL | half-life ([1]; human, plasma, oral, half-life, overall statement in discussion): ~24 h | AUC(0-inf) ([2]; 50 mg): 24500 ng·h/mL | AUC(0-inf) ([2]; 100 mg): 68700 ng·h/mL | concentration at 6 days ([3]; 25 mg): 4.51 ng/mL | concentration at 6 days ([3]; 50 mg): 3.07 ng/mL | concentration at 6 days ([3]; 100 mg): 8.42 ng/mL | detection in cerebrospinal fluid ([3]; pre-dose on the last dosing day of a 7-day dosing study, older healthy adults and PD participants): detected | Severity of treatment-related adverse event: Dermatitis ([4]; 50 mg, 7-day, 1x/day, PD patients): Mild | Severity of treatment-related adverse event: Palpitations ([4]; 75 mg, Single Dose, healthy subjects): Mild | Severity of treatment-related adverse event: Constipation ([4]; 100 mg, 7-day, 1x/day, PD patients): Mild | Severity of treatment-related adverse event: Elevated Lipase ([4]; 200 mg, 7-day, 1x/day, healthy subjects): Mild | Severity of treatment-related adverse event: Diarrhea ([4]; 325 mg, Single Dose, healthy subjects): Mild | deaths and serious adverse events ([4]; 94 healthy subjects and 14 participants with PD): no deaths, no serious adverse events | adverse events deemed possibly or probably related to the active drug ([4]; among all 36 recorded adverse events, SAD, MAD and MAD-PD, all mild): 11 | QTcF prolongation ([4]; any dose or dose duration): No participants displayed evidence of QTcF prolongation | orthostatic hypotension, heart rate, heart rhythm, blood pressure ([4]; participants with PD): did not exacerbate pre-existing orthostatic hypotension | increase of mean score for MDS-UPDRS Part III ([5]; 50 mg once daily 7 days): 6.2 (±9.50) points | increase of mean score for MDS-UPDRS Part III ([5]; 100 mg once daily 7 days): 7.4 (±14.1) points | effect in the MPTP acute toxicity model (c-Abl activation): blocked disease initiation and progression | histopathology in the pancreas [6]: no histopathology in the pancreas was observed | effect in models of inherited or sporadic Parkinson’s-like disease [7]: therapeutically effective

Cc1cn(-c2cc(NC(=O)c3ccc(C)c(Nc4nccc(-c5cccnc5)n4)c3)cc(C(F)(F)F)c2)cn1 [nilotinib]
improvement of PD features (PD features): failure
